Data set [1] has as its system Hypersensitivity-Related Factors. The data set can be described thus: Antibody array (Ary028 immune chip kit): hypersensitivity-related factors after repeated dosing. It counts as in vivo. The conditions noted are these: ICR mice; tail vein once daily for 5 days; Adamgammadex sodium 1 g/kg, Sugammadex sodium 1 mg/kg, Neostigmine 0.3 mg/kg; pooled plasma of 2 mice; N.D. = below minimum detection limit. The method, then: An antibody array is a type of protein chip characterized by miniaturization, integration, and high throughput. It can be used to detect the expression abundance of proteins related to a specific physiological or pathological process. The principle involves arranging capture antibodies on a membrane or glass slide, incubating with the sample, adding biotin-labeled antibodies against the target proteins, and finally using HRP-streptavidin or fluorescein-streptavidin to detect the chip signal. Signals are detected using chemiluminescence or HiLyte™ Fluor 555-streptavidin.
In this experiment, ICR mice were randomly divided into a blank group, Adamgammadex sodium (1 g/kg) group, Sugammadex sodium (1 mg/kg) group, and Neostigmine (0.3 mg/kg) group, with 2 mice per group. Mice in each group given the corresponding dosage of compound via the tail vein once daily for 5 consecutive days. On the last day after administration, plasma from the 2 animals per group was mixed and detected using the Ary028 immune chip kit. Specific detection steps were as follows: • (1) Sample volume determination: 200 µL serum sample per Array unit. (2) Blocking protein chip: Each membrane was blocked with 2 mL of corresponding Array Buffer, incubated on a shaker for 1 hour. (3) Sample processing: Samples were diluted with corresponding Array Buffer to a volume of 1.5 mL per membrane, the corresponding Array unit was added, and incubated overnight with the Array protein membrane at 4°C. (4) Membranes were washed three times with corresponding Wash buffer, then diluted detection antibody was added and incubated at room temperature for 1 h. (5) Membranes were washed three times with corresponding Wash buffer, streptavidin-HRP was added and incubated for 30min at room temperature with shaking. (6) Membranes were washed three times with corresponding Wash buffer, 1 mL of chemiluminescent reagent was added to each well, and developed on a chemiluminescence imager. (7) Fluorescence intensity was used to represent the relative concentration of the corresponding protein.

In data set [2] the test system is cisatracurium-induced guinea pig muscle relaxation model. Briefly: Antagonism of residual muscle relaxation after cisatracurium in anesthetized guinea pigs (TOF monitoring). It counts as in vivo, Hartley guinea pigs. The conditions noted are these: for Residual Muscle Relaxation Recovery Time tTOF0-50: spontaneous recovery before administration; for Degree of tTOF50-90 shortening: vs negative control group. The method, then:
Ninety (90) qualified Hartley guinea pigs, male, were used. Sixty (60) animals were randomly divided into 6 experimental groups based on body weight using a stratified random method: negative control group, positive control group, low-dose test group, medium-dose test group, high-dose test group, and combination group, with 10 animals per group (n=10). The remaining animals served as spares. The negative control group received 0.9% sodium chloride. The positive control group received 0.0625 mg/kg neostigmine methylsulfate (referred to as neostigmine). The low-dose test group received 10 mg/kg adamgammadex sodium. The medium-dose test group received 20 mg/kg adamgammadex sodium. The high-dose test group received 40 mg/kg adamgammadex sodium. The combination group received 10 mg/kg adamgammadex sodium and 0.03125 mg/kg neostigmine. The administration volume for all groups was 1 mL/kg.
Adaptive feeding was conducted after the quarantine period. On the day of the experiment, guinea pigs were weighed, administered atropine (0.1 mg/kg) intramuscularly, and then anesthetized with an intraperitoneal injection of anesthetic (pentobarbital sodium 10 mg/kg, urethane 1000 mg/kg). After fixation, the animals were intubated and connected to a small animal ventilator. Both external jugular veins and the right carotid artery were cannulated. The left jugular vein was used for cisatracurium infusion, the right jugular vein for injection of different test substances, and the carotid artery was connected to a multi-channel physiological signal acquisition and processing system for continuous monitoring of arterial blood pressure and heart rate. Electrode patches were subcutaneously placed behind the left femur and tibia of the guinea pig, and two stimulating electrodes of the neuromuscular monitor were fixed to the two electrode patches. The left hind paw was fixed on a custom-made platform. A sensor was fixed to the skin surface over the gastrocnemius muscle of the left hind limb, and a skin temperature probe was fixed to a flat area of skin. Continuous single-twitch stimulation was applied at 1 Hz. After the twitch height stabilized, the mode was switched to train-of-four stimulation (TOF mode, stimulus current 5 mA, frequency 2 Hz, pulse width 0.2 ms, interval between trains 15 s) for at least 5 min. Calibration was then performed using Calibration Mode 2, followed by TOF mode stimulation. After obtaining a stable stimulation response for at least 2 min, cisatracurium solution was infused intravenously using a dual-channel micro-infusion pump, and the start time of infusion was recorded. […] At this point, cisatracurium infusion was stopped. After stopping the infusion, neuromuscular function was allowed to recover spontaneously. When neuromuscular function reached moderate recovery, the test drug formulation was administered intravenously. Neuromuscular function was allowed to recover completely, and the administration time was recorded (Figure 1). Using the time of spontaneous recovery to moderate neuromuscular function (TOF50) as zero point, the times for recovery from TOF50 to TOF75, TOF75 to TOF90, and TOF50 to TOF90 were calculated for each animal (Table 1-2). Arterial blood pressure (systolic, diastolic, mean arterial pressure) and heart rate were recorded before cisatracurium infusion, at the time cisatracurium infusion was stopped, at the time of moderate neuromuscular recovery, and at the time of complete neuromuscular function recovery (Tables 3-7). Data were expressed as Mean ± SD. Statistical T-tests were performed using SPSS software to evaluate differences in blood pressure, heart rate, and residual neuromuscular blockade recovery times. P < 0.05 was considered statistically significant.

Where [3] appears, read: positive control group, 0.0625 mg/kg i.v.
Where [4] appears, read: high-dose test group, 40 mg/kg i.v.
Setting [5] is: low-dose test group, 10 mg/kg i.v.
Where [6] appears, read: medium-dose test group, 20 mg/kg i.v.

Take `CN(C)C(=O)Oc1cccc([N+](C)(C)C)c1` [Neostigmine, neostigmine methylsulfate]: in data set [1], the “Fluorescence Intensity CCL11 (Eosinophil activation chemokine)” value stood at 6286.81, the “Fluorescence Intensity CCL12 (Monocyte chemotactic receptor 5)” value came out at 5003.37, the “Fluorescence Intensity GM-CSF (Granulocyte-macrophage colony-stimulating factor)” value stood at 1679.67 and the “Fluorescence Intensity IL-1α (Interleukin 1α)” value was 1891.15. For the same compound, in data set [1], the “Fluorescence Intensity IL-1β (Interleukin 1β)” value was determined as 1087.46, the “Fluorescence Intensity IL-3 (Interleukin 3)” value stood at 1133.66, the “Fluorescence Intensity IL-4 (Interleukin 4)” value was found to be 3939.66 and the “Fluorescence Intensity IL-5 (Interleukin-5)” value is 1864.09. Further, in data set [1], the “Fluorescence Intensity IL-6 (Interleukin-6)” value was found to be 2321.39, the “Fluorescence Intensity IL-15 (Interleukin-15)” value was found to be 1503.8 and the “Fluorescence Intensity TNF-α (Tumor necrosis factor)” value stood at 1116.77. Further, in data set [2] (setting [3]), the “Residual Muscle Relaxation Recovery Time Ratios RtTOF50-75/0-50” value is reported as 0.09±0.07, the “Residual Muscle Relaxation Recovery Time Ratios RtTOF50-90/0-50” value was 0.18±0.09, the “Residual Muscle Relaxation Recovery Time Ratios RtTOF75-90/0-50” value was found to be 0.09±0.07 and the “Residual Muscle Relaxation Recovery Time tTOF50-75” value turned out to be 101 ± 71 s. In addition, in data set [2] (setting [3]), the “Residual Muscle Relaxation Recovery Time tTOF50-90” value turned out to be 188 ± 86 s, the “Residual Muscle Relaxation Recovery Time tTOF75-90” value was found to be 87 ± 68 s, the “Residual Muscle Relaxation Recovery Time tTOF0-50” value was determined as 1134 ± 281 s and the “Degree of tTOF50-90 shortening” value turned out to be 58.7%.

For the compound Adamgammadex sodium [Compound 1], in data set [1], the “Fluorescence Intensity CCL12 (Monocyte chemotactic receptor 5)” value is 168.83, the “Fluorescence Intensity IL-4 (Interleukin 4)” value amounted to 225.32 and the “Fluorescence Intensity IL-6 (Interleukin-6)” value is on record as 89.83. In data set [2] (setting [4]), the “Residual Muscle Relaxation Recovery Time Ratios RtTOF50-75/0-50” value is recorded as 0.10±0.11, the “Residual Muscle Relaxation Recovery Time Ratios RtTOF50-90/0-50” value worked out at 0.16±0.11, the “Residual Muscle Relaxation Recovery Time Ratios RtTOF75-90/0-50” value is listed as 0.06±0.06 and the “Residual Muscle Relaxation Recovery Time tTOF50-75” value was 131 ± 144 s. Besides, in data set [2] (setting [4]), the “Residual Muscle Relaxation Recovery Time tTOF50-90” value worked out at 201 ± 131 s, the “Residual Muscle Relaxation Recovery Time tTOF75-90” value turned out to be 71 ± 52 s, the “Residual Muscle Relaxation Recovery Time tTOF0-50” value is 1413 ± 693 s and the “Degree of tTOF50-90 shortening” value is given as 55.8%. In data set [2] (setting [5]), the “Residual Muscle Relaxation Recovery Time Ratios RtTOF50-75/0-50” value is recorded as 0.14±0.10, the “Residual Muscle Relaxation Recovery Time Ratios RtTOF50-90/0-50” value is 0.23±0.13, the “Residual Muscle Relaxation Recovery Time Ratios RtTOF75-90/0-50” value came to 0.09±0.05 and the “Residual Muscle Relaxation Recovery Time tTOF50-75” value came to 143 ± 85 s. In data set [2] (setting [5]), the “Residual Muscle Relaxation Recovery Time tTOF50-90” value worked out at 248 ± 139 s, the “Residual Muscle Relaxation Recovery Time tTOF75-90” value is 105 ± 78 s, the “Residual Muscle Relaxation Recovery Time tTOF0-50” value was found to be 1093 ± 427 s and the “Degree of tTOF50-90 shortening” value is 45.5%. In data set [2] (setting [6]), the “Residual Muscle Relaxation Recovery Time Ratios RtTOF50-75/0-50” value worked out at 0.12±0.05, the “Residual Muscle Relaxation Recovery Time Ratios RtTOF50-90/0-50” value came out at 0.22±0.08, the “Residual Muscle Relaxation Recovery Time Ratios RtTOF75-90/0-50” value is reported as 0.09±0.07 and the “Residual Muscle Relaxation Recovery Time tTOF50-75” value was determined as 159 ± 72 s. For the same compound, in data set [2] (setting [6]), the “Residual Muscle Relaxation Recovery Time tTOF50-90” value is 279 ± 123 s, the “Residual Muscle Relaxation Recovery Time tTOF75-90” value was found to be 120 ± 99 s, the “Residual Muscle Relaxation Recovery Time tTOF0-50” value was found to be 1349 ± 381 s and the “Degree of tTOF50-90 shortening” value was 38.7%.

(Values after patent publication EP4778531A1, “MUSCLE RELAXANT ANTAGONIST FOR REVERSAL FOR BENZYLISOQUINOLINE MUSCLE RELAXANT” (priority 2023, dated 2025).)
